Experiment: xn = mol fraction of the nth substance listed
Settings: 100 kPa, Liquid; for mass density: Vibrating tube method; for viscosity: Falling or rolling sphere viscometry; for speed of sound: Frequency=3 MHz, Sing-around technique in a fixed-path interferometer

CCOS(=O)(=O)[O-].CCn1cc[n+](C)c1 [1-ethyl-3-methylimidazolium ethyl sulfate] + CCCCO
Settings	mass density [kg/m3]	speed of sound [m/s]	viscosity [mPa·s]
289.15 K, x1 = 0.1071	894.433	–	–
289.15 K, x1 = 0.1982	955.118	–	–
289.15 K, x1 = 0.3069	1015.6	–	–
289.15 K, x1 = 0.3985	1058.77	–	–
289.15 K, x1 = 0.5048	1101.82	–	–
289.15 K, x1 = 0.603	1136.02	–	–
289.15 K, x1 = 0.7158	1169.99	–	–
289.15 K, x1 = 0.7951	1191.1	–	–
289.15 K, x1 = 0.9185	1219.88	–	–
289.15 K, x1 = 1	1236.33	–	–
298.15 K, x1 = 0.1071	–	1289.1	4.24
298.15 K, x1 = 0.1982	–	1334.4	7.8
298.15 K, x1 = 0.3069	–	1385.6	10.83
298.15 K, x1 = 0.3985	–	1430.2	14.09
298.15 K, x1 = 0.5048	–	1480.4	19.44
298.15 K, x1 = 0.603	–	1523.6	26.62
298.15 K, x1 = 0.7158	–	1571.7	38.4
298.15 K, x1 = 0.7951	–	1603.7	49.51
298.15 K, x1 = 0.9185	–	1649.7	72.34
298.15 K, x1 = 1	–	1682.3	96.21
303.15 K, x1 = 0.1071	890.751	1273.7	3.75
303.15 K, x1 = 0.1982	951.498	1319.9	6.51
303.15 K, x1 = 0.3069	1012.01	1372	9.15
303.15 K, x1 = 0.3985	1055.33	1417	11.98
303.15 K, x1 = 0.5048	1098.4	1467.3	16.51
303.15 K, x1 = 0.603	1132.65	1510.8	22.37
303.15 K, x1 = 0.7158	1166.67	1559.1	31.74
303.15 K, x1 = 0.7951	1187.78	1591.2	40.39
303.15 K, x1 = 0.9185	1216.56	1637.3	57.89
303.15 K, x1 = 1	1232.93	1670	75.89
308.15 K, x1 = 0.1071	887.005	1258.4	3.34
308.15 K, x1 = 0.1982	947.88	1305.4	5.54
308.15 K, x1 = 0.3069	1008.14	1358.2	7.92
308.15 K, x1 = 0.3985	1051.76	1403.8	10.46
308.15 K, x1 = 0.5048	1094.94	1454.7	14.4
308.15 K, x1 = 0.603	1129.23	1498.4	19.31
308.15 K, x1 = 0.7158	1163.39	1546.8	26.88
308.15 K, x1 = 0.7951	1184.46	1578.9	33.7
308.15 K, x1 = 0.9185	1213.19	1625.2	47.2
308.15 K, x1 = 1	1229.57	1657.9	60.73
313.15 K, x1 = 0.1071	883.165	1243.2	2.99
313.15 K, x1 = 0.1982	944.157	1290.7	4.82
313.15 K, x1 = 0.3069	1004.86	1344.1	6.95
313.15 K, x1 = 0.3985	1048.25	1390.4	9.21
313.15 K, x1 = 0.5048	1091.49	1441.8	12.62
313.15 K, x1 = 0.603	1125.39	1485.8	16.74
313.15 K, x1 = 0.7158	1160.05	1534.5	22.92
313.15 K, x1 = 0.7951	1181.13	1566.7	28.36
313.15 K, x1 = 0.9185	1209.91	1613.1	38.93
313.15 K, x1 = 1	1226.21	1645.9	49.38
318.15 K, x1 = 0.1071	879.331	1228	2.69
318.15 K, x1 = 0.1982	940.543	1276.5	4.25
318.15 K, x1 = 0.3069	1001.31	1330.5	6.16
318.15 K, x1 = 0.3985	1044.72	1377.6	8.16
318.15 K, x1 = 0.5048	1088.01	1429.8	11.12
318.15 K, x1 = 0.603	1122.45	1473.7	14.62
318.15 K, x1 = 0.7158	1156.71	1522.6	19.75
318.15 K, x1 = 0.7951	1177.81	1554.8	24.19
318.15 K, x1 = 0.9185	1206.65	1601.2	32.66
318.15 K, x1 = 1	1222.87	1634.1	40.93
323.15 K, x1 = 0.1071	875.482	1213	2.43
323.15 K, x1 = 0.1982	936.794	1262.2	3.69
323.15 K, x1 = 0.3069	997.633	1317	5.43
323.15 K, x1 = 0.3985	1041.07	1364.8	7.28
323.15 K, x1 = 0.5048	1084.47	1417.4	9.93
323.15 K, x1 = 0.603	1118.96	1461.5	12.97
323.15 K, x1 = 0.7158	1153.24	1510.6	17.27
323.15 K, x1 = 0.7951	1174.37	1543	20.87
323.15 K, x1 = 0.9185	1203.18	1589.4	27.56
323.15 K, x1 = 1	1219.54	1622.3	33.82

Reference: the NIST ThermoML archive (doi:10.1016/j.fluid.2017.01.019)
